Earlier results as cited in PubChem BioAssay AID1259409 (Chemical Carcinogenesis Research Information System (CCRIS), 2018).
Several values for one entry are separate records, joined by “and”; a condition that tells them apart may be missing. Equal values may be shown once.

Tested on: rodent chemically induced tumor inhibition, incidence and multiplicity
Test: CCRIS tumor inhibitor studies
[1] = Carcinogen: BENZO[A]PYRENE, 50-32-8, Dose [Inhibitor]: 0.03 MMOL/G OF DIET DAILY STARTING 7 D BEFORE AND CONTINUING THROUGH 3 D AFTER CARCINOGEN TREATMENT FOLLOWED BY OBSERVAT, Route [Inhibitor]: ORAL, Species: MOUSE, Strain/Sex: ICR/FEMALE, Target Tissue: Type of Lesion: FORESTOMACH: NEOPLASM, Dose [Carcinogen]: 1 MG IN 0.2 ML CORN OIL 2/WK FOR 4 WK, Promoter: NONE USED

## COc1ccc(O)cc1
Carcinogen: BENZO[A]PYENE, 50-32-8, Dose [Inhibitor]: 0.028 MMOL/G DIET DAILY FOR 6 WK STARTING 14 D PRIOR TO THE FIRST UNTIL 1 D AFTER LAST CARCINOGEN DOSE FOLLOWED BY AN OB, Route [Inhibitor]: ORAL, Species: MOUSE, Strain/Sex: STRAIN-A/FEMALE, Target Tissue: Type of Lesion: LUNG: ADENOMA, Dose [Carcinogen]: 3 MG IN 0.2 ML COTTONSEED OIL GIVEN 3X AT 2 WK INTERVALS, Promoter: NONE USED
  tumour outcome (control, treated, inhibition, significance): 100%, 100%, 0%, not significant
Carcinogen: BENZO[A]PYENE, 50-32-8, Dose [Inhibitor]: 0.028 MMOL/G DIET DAILY STARTING 2 WK AFTER FINAL CARCINOGEN DOSE THROUGH THE END OF THE STUDY (STUDY DURATION: 14 WK), Route [Inhibitor]: ORAL, Species: MOUSE, Strain/Sex: ICR/FEMALE, Target Tissue: Type of Lesion: FORESTOMACH: PAPILLOMA, Dose [Carcinogen]: 1.5 MG IN 0.2 ML CORN OIL GIVEN 2/WK FOR 4 WK, Promoter: NONE USED
  tumour outcome (control, treated, inhibition, significance): 97%, 100%, -3%, not significant
Carcinogen: BENZO[A]PYRENE, 50-32-8, Dose [Inhibitor]: 0, 3.3 UMOL/G DIET BEGINNING 1 WK PRIOR TO CARCINOGEN TREATMENT AND CONTINUING FOR 1 WK POST CARCINOGEN TREATMENT FOLLOW, Route [Inhibitor]: ORAL, Species: MOUSE, Strain/Sex: CD-1/FEMALE, Target Tissue: Type of Lesion: FORESTOMACH: PAPILLOMA, Dose [Carcinogen]: 1 MG IN 0.2 ML CORN OIL 2/WK FOR 4 WK, Promoter: NONE USED
  tumour outcome (control, treated, inhibition, significance): 85%, 46%, 46%, p<0.01
[1]
  tumour outcome (control, treated, inhibition, significance): 100%, 65%, 35%, p 0.053
Carcinogen: BETA-PROPIOLACTONE, 57-57-8, Dose [Inhibitor]: 4.2 MG/G DIET DAILY FOR 14 WK STARTING 12 D PRIOR TO FIRST CARCINOGEN DOSE UNTIL 1 D AFTER LAST CARCINOGEN DOSE FOLLOWED, Route [Inhibitor]: ORAL, Species: MOUSE, Strain/Sex: ICR/FEMALE, Target Tissue: Type of Lesion: FORESTOMACH: PAPILLOMA OR CARCINOMA, Dose [Carcinogen]: 2 MG IN 0.1 ML PROPYLENE GLYCOL 2/WK FOR 12 WK, Promoter: NONE USED
  tumour outcome (control, treated, inhibition, significance): 100%, 41%, 59%, p<0.001
Carcinogen: BETA-PROPIOLACTONE, 57-57-8, Dose [Inhibitor]: 5.2 MG IN 0.1 ML PROPYLENE GLYCOL 2/WK FOR 12 WK GIVEN 1 HR PRIOR TO EACH CARCINOGEN ADMINISTRATION FOLLOWED BY AN OBSER, Route [Inhibitor]: GAVAGE, Species: MOUSE, Strain/Sex: ICR/FEMALE, Target Tissue: Type of Lesion: FORESTOMACH: PAPILLOMA OR CARCINOMA, Dose [Carcinogen]: 2 MG IN 0.1 ML PROPYLENE GLYCOL 2/WK FOR 12 WK, Promoter: NONE USED
  tumour outcome (control, treated, inhibition, significance): 100%, 61%, 39%, p<0.001
Carcinogen: BETA-PROPIOLACTONE, 57-57-8, Dose [Inhibitor]: 5.2 MG IN 0.1 ML PROPYLENE GLYCOL 2/WK FOR 12 WK GIVEN 4 HR PRIOR TO EACH CARCINOGEN ADMINISTRATION FOLLOWED BY AN OBSER, Route [Inhibitor]: GAVAGE, Species: MOUSE, Strain/Sex: ICR/FEMALE, Target Tissue: Type of Lesion: FORESTOMACH: PAPILLOMA OR CARCINOMA, Dose [Carcinogen]: 2 MG IN 0.1 ML PROPYLENE GLYCOL 2/WK FOR 12 WK, Promoter: NONE USED
  tumour outcome (control, treated, inhibition, significance): 97%, 47%, 52%, p<0.001

## COc1ccc(O)c(C(C)(C)C)c1
Carcinogen: BENZO[A]PYENE, 50-32-8, Dose [Inhibitor]: 0.28 MMOL/G DIET DAILY FOR 6 WK STARTING 14 D PRIOR TO THE FIRST UNTIL 1 D AFTER LAST CARCINOGEN DOSE FOLLOWED BY AN OBS, Route [Inhibitor]: ORAL, Species: MOUSE, Strain/Sex: STRAIN-A/FEMALE, Target Tissue: Type of Lesion: LUNG: ADENOMA, Dose [Carcinogen]: 3 MG IN 0.2 ML COTTONSEED OIL GIVEN 3X AT 2 WK INTERVALS, Promoter: NONE USED
  tumour outcome (control, treated, inhibition, significance): 100%, 100%, 0%, not significant
[1]
  tumour outcome (control, treated, inhibition, significance): 90%, 79%, 12%, not significant and 94%, 79%, 16%, not significant

## N
Carcinogen: N-BUTYL-N-(4-HYDROXYBUTYL)NITROSAMINE, 3817-11-6, Dose [Inhibitor]: 0, 1% IN DRINKING WATER FOR 31 WK BEGINNING POST CARCINOGEN DOSE (STUDY DURATION: 36 WK), Route [Inhibitor]: ORAL, Species: RAT, Strain/Sex: F344/MALE, Target Tissue: Type of Lesion: URINARY BLADDER: CARCINOMA, Dose [Carcinogen]: 0.05% IN DRINKING WATER FOR 4 WK, Promoter: BUTYLATED HYDROXYANISOLE, 25013-16-5
  tumour outcome (control, treated, inhibition, significance): 5/15 (33%), 3/15 (20%), 39%, not significant
Carcinogen: N-BUTYL-N-(4-HYDROXYBUTYL)NITROSAMINE, 3817-11-6, Dose [Inhibitor]: 0, 1% IN DRINKING WATER FOR 31 WK BEGINNING POST CARCINOGEN DOSE (STUDY DURATION: 36 WK), Route [Inhibitor]: ORAL, Species: RAT, Strain/Sex: F344/MALE, Target Tissue: Type of Lesion: URINARY BLADDER: CARCINOMA, Dose [Carcinogen]: 0.05% IN DRINKING WATER FOR 4 WK, Promoter: SODIUM BICARBONATE, 144-55-8
  tumour outcome (control, treated, inhibition, significance): 8/15 (53%), 4/15 (27%), 49%, not significant
Carcinogen: N-BUTYL-N-(4-HYDROXYBUTYL)NITROSAMINE, 3817-11-6, Dose [Inhibitor]: 0, 1% IN DRINKING WATER FOR 31 WK BEGINNING POST CARCINOGEN DOSE (STUDY DURATION: 36 WK), Route [Inhibitor]: ORAL, Species: RAT, Strain/Sex: F344/MALE, Target Tissue: Type of Lesion: URINARY BLADDER: PAPILLOMA, Dose [Carcinogen]: 0.05% IN DRINKING WATER FOR 4 WK, Promoter: BUTYLATED HYDROXYANISOLE, 25013-16-5
  tumour outcome (control, treated, inhibition, significance): 8/15 (53%), 8/15 (53%), 0%, not significant
Carcinogen: N-BUTYL-N-(4-HYDROXYBUTYL)NITROSAMINE, 3817-11-6, Dose [Inhibitor]: 0, 1% IN DRINKING WATER FOR 31 WK BEGINNING POST CARCINOGEN DOSE (STUDY DURATION: 36 WK), Route [Inhibitor]: ORAL, Species: RAT, Strain/Sex: F344/MALE, Target Tissue: Type of Lesion: URINARY BLADDER: PAPILLOMA, Dose [Carcinogen]: 0.05% IN DRINKING WATER FOR 4 WK, Promoter: SODIUM BICARBONATE, 144-55-8
  tumour outcome (control, treated, inhibition, significance): 9/15 (60%), 8/15 (53%), 12%, not significant

## NC(=O)NO
Carcinogen: 7,12-DIMETHYLBENZ[A]ANTHRACENE, 57-97-6, Dose [Inhibitor]: 0, 0.5 MG/G BW IN 0.9% SALINE ONCE 1 HR PRIOR TO FIRST PROMOTER DOSE (STUDY DURATION: 22 WK), Route [Inhibitor]: INTRAPERITONEAL, Species: MOUSE, Strain/Sex: NMRI/FEMALE, Target Tissue: Type of Lesion: SKIN: PAPILLOMA, Dose [Carcinogen]: 50 UG/G BW IN SESAME OIL
  tumour outcome (control, treated, inhibition, significance): 95%, 79%, 17%, not significant
Carcinogen: 7,12-DIMETHYLBENZ[A]ANTHRACENE, 57-97-6, Dose [Inhibitor]: 0, 0.5 MG/G BW IN 0.9% SALINE ONCE 6 HR POST FIRST PROMOTER DOSE (STUDY DURATION: 22 WK), Route [Inhibitor]: INTRAPERITONEAL, Species: MOUSE, Strain/Sex: NMRI/FEMALE, Target Tissue: Type of Lesion: SKIN: PAPILLOMA, Dose [Carcinogen]: 50 UG/G BW IN SESAME OIL
  tumour outcome (control, treated, inhibition, significance): 95%, 65%, 32%, not calculated
Carcinogen: 7,12-DIMETHYLBENZ[A]ANTHRACENE, 57-97-6, Dose [Inhibitor]: 0, 0.5 MG/G BW IN 0.9% SALINE ONCE 12 HR POST FIRST PROMOTER DOSE (STUDY DURATION: 22 WK), Route [Inhibitor]: INTRAPERITONEAL, Species: MOUSE, Strain/Sex: NMRI/FEMALE, Target Tissue: Type of Lesion: SKIN: PAPILLOMA, Dose [Carcinogen]: 50 UG/G BW IN SESAME OIL
  tumour outcome (control, treated, inhibition, significance): 95%, 60%, 37%, not calculated and 95%, 59%, 38%, not calculated
Carcinogen: 7,12-DIMETHYLBENZ[A]ANTHRACENE, 57-97-6, Dose [Inhibitor]: 0, 0.5 MG/G BW IN 0.9% SALINE ONCE 18 HR POST FIRST PROMOTER DOSE (STUDY DURATION: 22 WK), Route [Inhibitor]: INTRAPERITONEAL, Species: MOUSE, Strain/Sex: NMRI/FEMALE, Target Tissue: Type of Lesion: SKIN: PAPILLOMA, Dose [Carcinogen]: 50 UG/G BW IN SESAME OIL
  tumour outcome (control, treated, inhibition, significance): 95%, 33%, 65%, not calculated and 95%, 30%, 68%, not calculated and 93%, 33%, 65%, not calculated
Carcinogen: 7,12-DIMETHYLBENZ[A]ANTHRACENE, 57-97-6, Dose [Inhibitor]: 0, 0.5 MG/G BW IN 0.9% SALINE ONCE 24 HR POST FIRST PROMOTER DOSE (STUDY DURATION: 22 WK), Route [Inhibitor]: INTRAPERITONEAL, Species: MOUSE, Strain/Sex: NMRI/FEMALE, Target Tissue: Type of Lesion: SKIN: PAPILLOMA, Dose [Carcinogen]: 50 UG/G BW IN SESAME OIL
  tumour outcome (control, treated, inhibition, significance): 95%, 39%, 59%, not calculated and 95%, 45%, 53%, not calculated
Carcinogen: 7,12-DIMETHYLBENZ[A]ANTHRACENE, 57-97-6, Dose [Inhibitor]: 0, 0.5 MG/G BW IN 0.9% SALINE ONCE 48 HR POST FIRST PROMOTER DOSE (STUDY DURATION: 22 WK), Route [Inhibitor]: INTRAPERITONEAL, Species: MOUSE, Strain/Sex: NMRI/FEMALE, Target Tissue: Type of Lesion: SKIN: PAPILLOMA, Dose [Carcinogen]: 50 UG/G BW IN SESAME OIL
  tumour outcome (control, treated, inhibition, significance): 95%, 94%, 1%, not significant
